According to patent EP2106791A1, “Glutamine or glutamine-containing dipeptide in a specific dosage for the treatment of inflammation” (Biotempt B.V., priority 2008, dated 2009):
Residues, ends and D or L forms follow the SMILES beside them.

Tests used:
[1] = tested on: mouse renal ischemia reperfusion; assay: Mice renal failure test (mouse renal ischemia reperfusion), mortality; format: in vivo; details: score = animals died - animals in group
Experimental: Dipeptides are tested and compared with PBS (control) in a double blind animal study for a dipeptide's relative ability to aid recovery in a mouse renal ischemia reperfusion or mouse renal failure test. Under inhalation anesthesia, the left kidney with its artery and vein is isolated and occluded for 25 minutes using a microvascular clamp. During surgery, animals are placed on a heating path to maintain body temperature at 37°C. Five minutes before placing the clamp, and 5 minutes before releasing the clamp, dipeptide, dissolved in 0.1 mL of sterile saline, is administered intravenously. After reperfusion of the left kidney the right kidney is removed. Kidney function is assessed by measuring blood urea nitrogen before clamping, and at 2, 24, and 72 hours after reperfusion, by determining mRNA levels for cytokine expression, and such.
In short, in this test, the mice are anesthetized, and one kidney from each mouse is removed. The other kidney is tied off for 25 minutes, and the ischemia levels in the kidney are allowed to increase. Both before and/or after tying off, GLN-containing dipeptide is administered to 8 to 10 different mice per group (dosages vary per group from for example 0.7, 3, 7, 30 and 70 mg dipeptide / kg body mass intravenously). The mortality of the mice is determined for each oligopeptide as well as for example the BUN or creatinine concentration at two hours, 24 hours and 72 hours. Two dipeptides AQ and LQ are for example tested in a dose-response manner in the mice renal failure test. Dipeptides are tested at dosages of 0.7, 3, 7, 30 and 70 mg/kg body weight given intravenously.

Hemorrhagic shock = assay: Rat hemorrhagic shock study, recovery of mean arterial pressure; format: in vivo, Rats; details: AQ intravenously 0.7 to 70 mg/kg with Ringer's lactate during resuscitation; compared with the LR group
Experimental: (§1) Methods: Rats are randomly assigned to groups. Under isoflurane anesthesia, the femoral artery and vein are cannulated. Hemorrhagic shock is induced by withdrawing blood through the arterial cannula until the mean arterial pressure (MAP) is 25-30 mm Hg and maintained at the level for 30 minutes with further withdrawals. Resuscitation is carried out by giving 21 mL/kg Ringer's lactate (LR) with or without the administration of AQ (intravenously at ranges from 0.7 to 70 mg/kg) and returning the shed blood. Controls are normal (anesthesia only), sham (surgical preparation), and shock (preparation and shock). Rats (n = 80, 10 per group) are killed 30 minutes after completion of resuscitation. Liver samples are collected, and total RNA is isolated for reverse transcription-polymerase chain reaction analysis of mRNA (TNF-a). […] Increased expression of liver mRNA for TNF-alpha is seen after hemorrhagic shock and resuscitation.

TNF-alpha = assay: Rat hemorrhagic shock study, liver mRNA by reverse transcription-polymerase chain reaction; format: in vivo, Rats; details: AQ intravenously 0.7 to 70 mg/kg during resuscitation; liver samples 30 minutes after completion of resuscitation
Experimental: as §1

| Structure (SMILES) | Mortality in mice renal failure experiment 24h ([1]; 0.7 mg/kg intravenously) | Mortality in mice renal failure experiment 72h ([1]; 0.7 mg/kg intravenously) | Mortality in mice renal failure experiment 24h ([1]; 3.0 mg/kg intravenously) | Mortality in mice renal failure experiment 72h ([1]; 3.0 mg/kg intravenously) | Mortality in mice renal failure experiment 24h ([1]; 7.0 mg/kg intravenously) | Mortality in mice renal failure experiment 72h ([1]; 7.0 mg/kg intravenously) | Mortality in mice renal failure experiment 24h ([1]; 30.0 mg/kg intravenously) | Mortality in mice renal failure experiment 72h ([1]; 30.0 mg/kg intravenously) | Mortality in mice renal failure experiment 24h ([1]; 70.0 mg/kg intravenously) | Mortality in mice renal failure experiment 72h ([1]; 70.0 mg/kg intravenously) | MAP recovery (Hemorrhagic shock) | expression of liver mRNA for TNF-alpha (TNF-alpha) |
| --- | --- | --- | --- | --- | --- | --- | --- | --- | --- | --- | --- | --- |
| C[C@H](N)C(=O)N[C@@H](CCC(N)=O)C(=O)O [AQ, alanyl-glutamine] (H-Ala-Gln-OH) | 0-9 | 2-9 | 0-10 | 1-9 | 0-10 | 0-9 | 0-8 | 1-10 | 0-9 | 1-9 | recovers more quickly | reduces mRNA expression for TNF-alpha |
| CC(C)C[C@H](N)C(=O)N[C@@H](CCC(N)=O)C(=O)O [LQ, leucyl-glutamine] (H-Leu-Gln-OH) | 0-9 | 2-9 | 0-10 | 1-9 | 1-10 | 1-10 | 0-10 | 0-9 | 0-8 | 3-9 |  |  |
